Source: the kinase profiling compilation of Christmann-Franck et al. (2016)
Several values for one entry are separate records, joined by “and”; a condition that tells them apart may be missing. Equal entries are not always repeated.

target: ACVR1 (human) (UniProt Q04771); experiment: radiometric filter-binding kinase assay, Kinase HotSpot; settings: compound 0.5 µM; ATP 10 µM

SMILES	residual activity [%]
Nc1ncnc2c1cnn2-c1ccccc1	101
O=C(c1ccccc1)c1ccc(N2CCOCC2)cc1O	107
c1ccc(-c2cnc(Nc3ccc(OCCN4CCCC4)cc3)s2)cc1	164

target: ACVRL1 (human) (UniProt P37023); experiment: as above; settings: compound 0.5 µM; ATP 10 µM

SMILES	residual activity [%]
Nc1ncnc2c1cnn2-c1ccccc1	109
O=C(c1ccccc1)c1ccc(N2CCOCC2)cc1O	105
c1ccc(-c2cnc(Nc3ccc(OCCN4CCCC4)cc3)s2)cc1	108

target: ALK (human) (UniProt Q9UM73); experiment: as above; settings: compound 0.5 µM; ATP 10 µM

SMILES	residual activity [%]
Nc1ncnc2c1cnn2-c1ccccc1	90.9
O=C(c1ccccc1)c1ccc(N2CCOCC2)cc1O	102
c1ccc(-c2cnc(Nc3ccc(OCCN4CCCC4)cc3)s2)cc1	97

target: AURKC (human) (UniProt Q9UQB9); experiment: as above; settings: compound 0.5 µM; ATP 10 µM
Sequence (Q9UQB9 whole entry, looked up): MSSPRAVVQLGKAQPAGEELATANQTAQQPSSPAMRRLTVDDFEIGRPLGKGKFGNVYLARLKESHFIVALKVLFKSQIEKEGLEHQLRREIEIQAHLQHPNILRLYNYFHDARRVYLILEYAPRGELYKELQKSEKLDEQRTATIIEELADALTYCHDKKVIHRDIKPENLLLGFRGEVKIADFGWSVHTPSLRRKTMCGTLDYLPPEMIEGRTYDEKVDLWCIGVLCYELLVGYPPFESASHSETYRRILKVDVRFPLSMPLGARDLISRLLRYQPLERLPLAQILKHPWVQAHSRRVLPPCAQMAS

SMILES	residual activity [%]
Nc1ncnc2c1cnn2-c1ccccc1	98.2
O=C(c1ccccc1)c1ccc(N2CCOCC2)cc1O	102
c1ccc(-c2cnc(Nc3ccc(OCCN4CCCC4)cc3)s2)cc1	94.9

target: BRSK1 (human) (UniProt Q8TDC3); experiment: as above; settings: compound 0.5 µM; ATP 10 µM

SMILES	residual activity [%]
Nc1ncnc2c1cnn2-c1ccccc1	90.2
O=C(c1ccccc1)c1ccc(N2CCOCC2)cc1O	103
c1ccc(-c2cnc(Nc3ccc(OCCN4CCCC4)cc3)s2)cc1	97.6

target: CAMKK2 (human) (UniProt Q96RR4); experiment: as above; settings: compound 0.5 µM; ATP 10 µM

SMILES	residual activity [%]
Nc1ncnc2c1cnn2-c1ccccc1	86.8
O=C(c1ccccc1)c1ccc(N2CCOCC2)cc1O	111
c1ccc(-c2cnc(Nc3ccc(OCCN4CCCC4)cc3)s2)cc1	89.4

target: CSF1R (human) (UniProt P07333); experiment: as above; settings: compound 0.5 µM; ATP 10 µM
Sequence (P07333 whole entry, looked up): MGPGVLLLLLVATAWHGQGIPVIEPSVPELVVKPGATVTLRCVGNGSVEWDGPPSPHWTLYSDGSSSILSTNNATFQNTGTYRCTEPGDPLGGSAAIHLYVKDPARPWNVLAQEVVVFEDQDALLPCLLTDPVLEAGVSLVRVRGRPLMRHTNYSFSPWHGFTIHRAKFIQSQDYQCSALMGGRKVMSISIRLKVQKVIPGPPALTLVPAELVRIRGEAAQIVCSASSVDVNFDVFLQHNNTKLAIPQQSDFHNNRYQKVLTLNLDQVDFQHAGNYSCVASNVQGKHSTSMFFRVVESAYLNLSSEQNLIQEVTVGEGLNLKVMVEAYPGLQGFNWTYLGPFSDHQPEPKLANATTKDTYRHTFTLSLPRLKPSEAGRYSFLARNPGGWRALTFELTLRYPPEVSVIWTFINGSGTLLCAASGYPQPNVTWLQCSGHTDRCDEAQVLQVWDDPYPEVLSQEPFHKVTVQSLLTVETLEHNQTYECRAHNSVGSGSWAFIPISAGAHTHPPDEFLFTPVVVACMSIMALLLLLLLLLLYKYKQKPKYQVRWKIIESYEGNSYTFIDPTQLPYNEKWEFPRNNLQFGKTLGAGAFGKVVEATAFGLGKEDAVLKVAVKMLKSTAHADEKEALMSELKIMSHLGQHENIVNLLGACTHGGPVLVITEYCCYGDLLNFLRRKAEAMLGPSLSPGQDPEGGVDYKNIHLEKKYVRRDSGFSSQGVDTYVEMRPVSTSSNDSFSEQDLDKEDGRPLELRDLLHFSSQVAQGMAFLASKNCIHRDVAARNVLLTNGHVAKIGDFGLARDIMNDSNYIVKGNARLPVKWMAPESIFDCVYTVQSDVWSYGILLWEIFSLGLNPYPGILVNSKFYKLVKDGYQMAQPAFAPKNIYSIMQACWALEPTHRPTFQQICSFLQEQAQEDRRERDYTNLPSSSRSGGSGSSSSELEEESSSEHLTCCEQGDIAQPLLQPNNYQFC

SMILES	residual activity [%]
Nc1ncnc2c1cnn2-c1ccccc1	105
O=C(c1ccccc1)c1ccc(N2CCOCC2)cc1O	99.7
c1ccc(-c2cnc(Nc3ccc(OCCN4CCCC4)cc3)s2)cc1	38.4

target: CSNK1A1 (human) (UniProt P48729); experiment: as above; settings: compound 0.5 µM; ATP 10 µM
Sequence (P48729 whole entry, looked up): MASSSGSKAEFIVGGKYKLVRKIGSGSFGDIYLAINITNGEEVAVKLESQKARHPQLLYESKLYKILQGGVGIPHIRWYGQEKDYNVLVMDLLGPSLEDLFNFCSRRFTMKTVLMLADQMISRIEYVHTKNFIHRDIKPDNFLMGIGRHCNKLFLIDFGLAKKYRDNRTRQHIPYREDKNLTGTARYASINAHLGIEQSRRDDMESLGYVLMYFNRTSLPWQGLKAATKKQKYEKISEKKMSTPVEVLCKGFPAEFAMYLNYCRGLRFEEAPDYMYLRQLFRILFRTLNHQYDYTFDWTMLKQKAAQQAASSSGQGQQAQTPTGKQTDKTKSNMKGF

SMILES	residual activity [%]
Nc1ncnc2c1cnn2-c1ccccc1	79.8
O=C(c1ccccc1)c1ccc(N2CCOCC2)cc1O	110
c1ccc(-c2cnc(Nc3ccc(OCCN4CCCC4)cc3)s2)cc1	86.7

target: DAPK1 (human) (UniProt P53355); experiment: as above; settings: compound 0.5 µM; ATP 10 µM

SMILES	residual activity [%]
Nc1ncnc2c1cnn2-c1ccccc1	98.5
O=C(c1ccccc1)c1ccc(N2CCOCC2)cc1O	92.5
c1ccc(-c2cnc(Nc3ccc(OCCN4CCCC4)cc3)s2)cc1	95.1

target: DYRK4 (human) (UniProt Q9NR20); experiment: as above; settings: compound 0.5 µM; ATP 10 µM
Sequence (Q9NR20 whole entry, looked up): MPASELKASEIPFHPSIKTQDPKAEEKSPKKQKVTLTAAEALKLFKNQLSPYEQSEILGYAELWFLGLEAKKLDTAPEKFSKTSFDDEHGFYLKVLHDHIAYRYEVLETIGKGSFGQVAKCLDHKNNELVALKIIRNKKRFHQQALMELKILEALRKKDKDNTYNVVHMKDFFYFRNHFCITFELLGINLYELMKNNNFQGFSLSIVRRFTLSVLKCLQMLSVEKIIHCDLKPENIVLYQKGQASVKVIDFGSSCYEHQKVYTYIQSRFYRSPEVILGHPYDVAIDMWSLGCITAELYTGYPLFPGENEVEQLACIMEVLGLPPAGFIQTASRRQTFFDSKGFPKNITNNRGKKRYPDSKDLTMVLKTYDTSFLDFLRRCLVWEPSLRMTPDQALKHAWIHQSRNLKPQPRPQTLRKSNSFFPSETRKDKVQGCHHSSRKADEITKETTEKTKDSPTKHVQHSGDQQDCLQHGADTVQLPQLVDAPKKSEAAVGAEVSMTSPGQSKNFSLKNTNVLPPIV

SMILES	residual activity [%]
Nc1ncnc2c1cnn2-c1ccccc1	98.4
O=C(c1ccccc1)c1ccc(N2CCOCC2)cc1O	94.9
c1ccc(-c2cnc(Nc3ccc(OCCN4CCCC4)cc3)s2)cc1	99.4

target: EPHA1 (human) (UniProt P21709); experiment: as above; settings: compound 0.5 µM; ATP 10 µM

SMILES	residual activity [%]
Nc1ncnc2c1cnn2-c1ccccc1	92.4
O=C(c1ccccc1)c1ccc(N2CCOCC2)cc1O	89.1
c1ccc(-c2cnc(Nc3ccc(OCCN4CCCC4)cc3)s2)cc1	85.3

target: FER (human) (UniProt P16591); experiment: as above; settings: compound 0.5 µM; ATP 10 µM
Sequence (P16591 whole entry, looked up): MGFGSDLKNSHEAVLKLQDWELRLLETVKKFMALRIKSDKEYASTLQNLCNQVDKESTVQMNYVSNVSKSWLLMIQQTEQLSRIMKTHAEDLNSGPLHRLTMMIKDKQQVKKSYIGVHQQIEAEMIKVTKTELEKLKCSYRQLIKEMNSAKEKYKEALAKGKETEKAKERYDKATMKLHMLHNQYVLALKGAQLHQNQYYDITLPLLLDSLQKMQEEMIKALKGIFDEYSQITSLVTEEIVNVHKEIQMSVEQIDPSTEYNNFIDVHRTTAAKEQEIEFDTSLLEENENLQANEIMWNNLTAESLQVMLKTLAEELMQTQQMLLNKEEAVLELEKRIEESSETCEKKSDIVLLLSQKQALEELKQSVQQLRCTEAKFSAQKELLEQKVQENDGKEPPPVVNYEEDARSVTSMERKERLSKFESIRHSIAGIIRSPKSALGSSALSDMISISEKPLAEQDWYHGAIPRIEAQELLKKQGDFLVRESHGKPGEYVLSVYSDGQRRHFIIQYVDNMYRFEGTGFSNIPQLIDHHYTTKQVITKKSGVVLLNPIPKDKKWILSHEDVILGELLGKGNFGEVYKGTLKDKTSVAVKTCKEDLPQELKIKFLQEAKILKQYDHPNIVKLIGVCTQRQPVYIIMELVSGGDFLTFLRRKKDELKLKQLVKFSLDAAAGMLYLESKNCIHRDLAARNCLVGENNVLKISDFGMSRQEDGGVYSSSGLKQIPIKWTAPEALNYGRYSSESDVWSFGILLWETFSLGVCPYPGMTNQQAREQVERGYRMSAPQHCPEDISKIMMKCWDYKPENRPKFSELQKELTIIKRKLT

SMILES	residual activity [%]
Nc1ncnc2c1cnn2-c1ccccc1	99
O=C(c1ccccc1)c1ccc(N2CCOCC2)cc1O	94.2
c1ccc(-c2cnc(Nc3ccc(OCCN4CCCC4)cc3)s2)cc1	90

target: FES (human) (UniProt P07332); experiment: as above; settings: compound 0.5 µM; ATP 10 µM

SMILES	residual activity [%]
Nc1ncnc2c1cnn2-c1ccccc1	99.7
O=C(c1ccccc1)c1ccc(N2CCOCC2)cc1O	95.2
c1ccc(-c2cnc(Nc3ccc(OCCN4CCCC4)cc3)s2)cc1	93.2

target: FGFR4 (human) (UniProt P22455); experiment: as above; settings: compound 0.5 µM; ATP 10 µM

SMILES	residual activity [%]
Nc1ncnc2c1cnn2-c1ccccc1	94.8
O=C(c1ccccc1)c1ccc(N2CCOCC2)cc1O	106
c1ccc(-c2cnc(Nc3ccc(OCCN4CCCC4)cc3)s2)cc1	95.6

target: GRK7 (human) (UniProt Q8WTQ7); experiment: as above; settings: compound 0.5 µM; ATP 10 µM
Sequence (Q8WTQ7 whole entry, looked up): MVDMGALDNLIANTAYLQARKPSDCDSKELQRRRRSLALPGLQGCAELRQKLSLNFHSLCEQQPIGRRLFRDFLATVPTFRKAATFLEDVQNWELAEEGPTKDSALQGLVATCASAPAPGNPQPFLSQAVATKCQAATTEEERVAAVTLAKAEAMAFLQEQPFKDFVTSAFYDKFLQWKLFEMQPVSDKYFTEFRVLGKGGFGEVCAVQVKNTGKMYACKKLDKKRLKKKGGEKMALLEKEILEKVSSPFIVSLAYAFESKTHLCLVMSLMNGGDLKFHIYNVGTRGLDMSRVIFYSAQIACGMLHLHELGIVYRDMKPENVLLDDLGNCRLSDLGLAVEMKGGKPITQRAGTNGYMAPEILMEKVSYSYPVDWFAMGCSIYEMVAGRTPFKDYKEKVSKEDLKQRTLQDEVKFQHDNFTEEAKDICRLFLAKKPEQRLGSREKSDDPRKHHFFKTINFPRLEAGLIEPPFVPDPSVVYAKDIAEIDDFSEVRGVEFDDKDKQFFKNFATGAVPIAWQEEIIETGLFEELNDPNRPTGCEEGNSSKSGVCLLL

SMILES	residual activity [%]
Nc1ncnc2c1cnn2-c1ccccc1	100
O=C(c1ccccc1)c1ccc(N2CCOCC2)cc1O	99.6
c1ccc(-c2cnc(Nc3ccc(OCCN4CCCC4)cc3)s2)cc1	90.2

target: IKBKB (human) (UniProt O14920); experiment: as above; settings: compound 0.5 µM; ATP 10 µM

SMILES	residual activity [%]
Nc1ncnc2c1cnn2-c1ccccc1	97.3
O=C(c1ccccc1)c1ccc(N2CCOCC2)cc1O	105
c1ccc(-c2cnc(Nc3ccc(OCCN4CCCC4)cc3)s2)cc1	98.1

target: LIMK1 (human) (UniProt P53667); experiment: as above; settings: compound 0.5 µM; ATP 10 µM

SMILES	residual activity [%]
Nc1ncnc2c1cnn2-c1ccccc1	89.1
O=C(c1ccccc1)c1ccc(N2CCOCC2)cc1O	83.9
c1ccc(-c2cnc(Nc3ccc(OCCN4CCCC4)cc3)s2)cc1	66.9

target: LYN (human) (UniProt P07948); experiment: as above; settings: compound 0.5 µM; ATP 10 µM
Sequence (P07948 whole entry, looked up): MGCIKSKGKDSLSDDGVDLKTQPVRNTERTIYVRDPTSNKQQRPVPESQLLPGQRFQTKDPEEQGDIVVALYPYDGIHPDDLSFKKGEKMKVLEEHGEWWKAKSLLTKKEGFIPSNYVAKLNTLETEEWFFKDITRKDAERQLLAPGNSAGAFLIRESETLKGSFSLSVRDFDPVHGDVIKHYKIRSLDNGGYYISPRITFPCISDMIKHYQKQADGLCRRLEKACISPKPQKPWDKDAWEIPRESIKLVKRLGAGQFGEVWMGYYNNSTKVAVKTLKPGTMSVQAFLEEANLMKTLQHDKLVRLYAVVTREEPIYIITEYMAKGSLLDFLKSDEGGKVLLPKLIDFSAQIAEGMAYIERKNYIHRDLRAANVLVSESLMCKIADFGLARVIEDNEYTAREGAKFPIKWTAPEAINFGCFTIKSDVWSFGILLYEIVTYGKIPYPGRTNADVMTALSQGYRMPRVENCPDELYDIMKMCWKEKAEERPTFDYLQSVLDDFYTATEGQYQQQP

SMILES	residual activity
Nc1ncnc2c1cnn2-c1ccccc1	102% and 99.7%
O=C(c1ccccc1)c1ccc(N2CCOCC2)cc1O	100% and 105%
c1ccc(-c2cnc(Nc3ccc(OCCN4CCCC4)cc3)s2)cc1	65.1% and 87.5%

target: MAP3K14 (human) (UniProt Q99558); experiment: as above; settings: compound 0.5 µM; ATP 10 µM
Sequence (Q99558 whole entry, looked up): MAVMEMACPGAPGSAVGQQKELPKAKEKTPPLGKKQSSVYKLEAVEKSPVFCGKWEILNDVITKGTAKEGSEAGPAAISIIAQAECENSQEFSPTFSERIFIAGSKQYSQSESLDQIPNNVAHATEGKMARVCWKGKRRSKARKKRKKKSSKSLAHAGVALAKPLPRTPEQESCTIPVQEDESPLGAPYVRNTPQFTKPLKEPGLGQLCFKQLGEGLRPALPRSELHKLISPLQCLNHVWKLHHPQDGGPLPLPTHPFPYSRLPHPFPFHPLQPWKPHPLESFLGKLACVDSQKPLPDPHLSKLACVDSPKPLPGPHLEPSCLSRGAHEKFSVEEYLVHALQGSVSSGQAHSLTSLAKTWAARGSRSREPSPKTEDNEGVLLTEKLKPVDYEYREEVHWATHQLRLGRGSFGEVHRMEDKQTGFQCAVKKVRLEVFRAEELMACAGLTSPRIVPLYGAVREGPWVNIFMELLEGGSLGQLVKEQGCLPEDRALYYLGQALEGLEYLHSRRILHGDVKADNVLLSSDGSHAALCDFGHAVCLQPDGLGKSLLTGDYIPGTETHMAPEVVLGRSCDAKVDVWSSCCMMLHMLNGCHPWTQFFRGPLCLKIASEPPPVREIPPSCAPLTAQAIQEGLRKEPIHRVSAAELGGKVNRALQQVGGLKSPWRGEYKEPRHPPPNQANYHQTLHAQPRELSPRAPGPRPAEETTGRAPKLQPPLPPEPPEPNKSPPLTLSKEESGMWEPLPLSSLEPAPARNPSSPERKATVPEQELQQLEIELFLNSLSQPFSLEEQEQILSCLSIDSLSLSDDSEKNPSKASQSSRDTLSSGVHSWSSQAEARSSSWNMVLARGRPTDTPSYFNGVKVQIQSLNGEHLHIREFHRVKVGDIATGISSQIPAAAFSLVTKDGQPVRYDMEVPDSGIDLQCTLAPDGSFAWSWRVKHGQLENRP

SMILES	residual activity [%]
Nc1ncnc2c1cnn2-c1ccccc1	120
O=C(c1ccccc1)c1ccc(N2CCOCC2)cc1O	75.1
c1ccc(-c2cnc(Nc3ccc(OCCN4CCCC4)cc3)s2)cc1	81.9

target: MAP3K5 (human) (UniProt Q99683); experiment: as above; settings: compound 0.5 µM; ATP 10 µM

SMILES	residual activity [%]
Nc1ncnc2c1cnn2-c1ccccc1	100
O=C(c1ccccc1)c1ccc(N2CCOCC2)cc1O	97.8
c1ccc(-c2cnc(Nc3ccc(OCCN4CCCC4)cc3)s2)cc1	91.1

target: MAP3K8 (human) (UniProt P41279); experiment: as above; settings: compound 0.5 µM; ATP 10 µM

SMILES	residual activity [%]
Nc1ncnc2c1cnn2-c1ccccc1	98.6
O=C(c1ccccc1)c1ccc(N2CCOCC2)cc1O	99.6
c1ccc(-c2cnc(Nc3ccc(OCCN4CCCC4)cc3)s2)cc1	97.2
